Measured values taken from ChEMBL document CHEMBL1155320, “Semi-rigid tripeptide agonists of melanocortin receptors” (Bioorg Med Chem Lett, 2009).
The source made the active and inactive calls. The calls are words filed in the database; no cut-off is given here.

Columns and labels:
[1] = biological target: Melanocortin receptor 3 (Mus musculus) (UniProt P33033); test: Agonistic activity against mouse MC3R at […]; format: functional
[2] = biological target: Melanocyte-stimulating hormone receptor (Mus musculus, UniProt Q01727); test: Agonistic activity against mouse MC1R; format: functional
Melanocortin receptor 4 = Melanocortin receptor 4 (Mus musculus, UniProt P56450); test: Agonistic activity against mouse MC4R; format: functional
Melanocortin receptor 5 = Melanocortin receptor 5 (Mus musculus, UniProt P41149); test: Agonistic activity against mouse MC5R; format: functional
[3] = biological target: Melanocortin receptor 5 (Mus musculus) (UniProt P41149); test: Agonistic activity against mouse MC5R at […]; format: functional
[4] = biological target: Melanocortin receptor 4 (Mus musculus) (UniProt P56450); test: Agonistic activity against mouse MC4R at […]; format: functional
Mus musculus [5] = species: Mus musculus; test: Selectivity index, ratio of EC50 for mouse MCR4R to EC50 for mouse MC1R
Mus musculus [6] = species: Mus musculus; test: Selectivity index, ratio of EC50 for mouse MCR5R to EC50 for mouse MC1R

Melanocortin receptor 4 (Mus musculus), sequence (P56450 whole entry): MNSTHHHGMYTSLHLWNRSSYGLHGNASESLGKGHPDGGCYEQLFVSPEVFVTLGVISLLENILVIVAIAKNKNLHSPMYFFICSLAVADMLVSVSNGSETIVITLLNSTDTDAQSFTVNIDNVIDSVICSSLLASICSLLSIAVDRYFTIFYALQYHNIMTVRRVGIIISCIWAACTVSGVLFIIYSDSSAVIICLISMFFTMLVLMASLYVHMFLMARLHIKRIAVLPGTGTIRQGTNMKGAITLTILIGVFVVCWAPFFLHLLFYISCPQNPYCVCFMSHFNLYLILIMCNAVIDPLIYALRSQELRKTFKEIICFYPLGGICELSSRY
Melanocortin receptor 3 (Mus musculus), sequence (P33033 whole entry): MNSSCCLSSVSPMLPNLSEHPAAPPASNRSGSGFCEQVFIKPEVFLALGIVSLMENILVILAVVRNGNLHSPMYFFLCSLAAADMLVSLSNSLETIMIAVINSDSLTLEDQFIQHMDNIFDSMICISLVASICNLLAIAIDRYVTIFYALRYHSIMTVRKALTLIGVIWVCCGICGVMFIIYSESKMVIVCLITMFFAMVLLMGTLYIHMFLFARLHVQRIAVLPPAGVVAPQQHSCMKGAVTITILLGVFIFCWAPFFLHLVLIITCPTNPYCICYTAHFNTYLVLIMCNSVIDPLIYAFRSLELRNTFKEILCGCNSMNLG
Melanocortin receptor 5 (Mus musculus), sequence (P41149 whole entry): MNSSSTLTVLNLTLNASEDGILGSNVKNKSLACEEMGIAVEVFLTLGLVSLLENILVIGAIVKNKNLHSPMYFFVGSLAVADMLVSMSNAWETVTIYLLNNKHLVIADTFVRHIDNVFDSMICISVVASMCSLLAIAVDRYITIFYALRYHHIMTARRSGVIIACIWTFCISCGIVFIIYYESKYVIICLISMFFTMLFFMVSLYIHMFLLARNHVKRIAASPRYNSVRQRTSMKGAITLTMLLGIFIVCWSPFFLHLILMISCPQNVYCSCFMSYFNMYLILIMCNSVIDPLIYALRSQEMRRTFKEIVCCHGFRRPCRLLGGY
Melanocyte-stimulating hormone receptor, sequence (Q01727 whole entry): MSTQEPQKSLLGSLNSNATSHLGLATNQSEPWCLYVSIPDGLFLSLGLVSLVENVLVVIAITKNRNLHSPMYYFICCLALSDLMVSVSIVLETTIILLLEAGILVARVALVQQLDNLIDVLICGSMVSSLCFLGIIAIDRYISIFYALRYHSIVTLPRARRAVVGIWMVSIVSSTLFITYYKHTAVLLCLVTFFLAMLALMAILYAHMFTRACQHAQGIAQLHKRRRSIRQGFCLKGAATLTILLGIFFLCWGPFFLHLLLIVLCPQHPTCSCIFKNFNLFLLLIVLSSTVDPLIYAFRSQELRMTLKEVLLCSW
Melanocortin receptor 5, sequence (P41149 whole entry): as the sequence (P41149 whole entry) above
Melanocortin receptor 4, sequence (P56450 whole entry): as the sequence (P56450 whole entry) above

| Activity [1] | Structure (SMILES) | also measured |
| --- | --- | --- |
| inactive | COc1ccc(/C=C\C(=O)N[C@@H](Cc2cnc[nH]2)C(=O)N[C@H](Cc2ccccc2)C(=O)N[C@H](CCCNC(=N)N)C(N)=O)cc1 | – |
| inactive | N=C(N)NCCC[C@@H](NC(=O)[C@@H](Cc1ccccc1)NC(=O)[C@H](Cc1cnc[nH]1)NC(=O)/C=C/c1ccc(F)cc1F)C(N)=O | – |
| inactive | N=C(N)NCCC[C@@H](NC(=O)[C@@H](Cc1ccccc1)NC(=O)[C@H](Cc1cnc[nH]1)NC(=O)/C=C/c1ccc2c(c1)OCO2)C(N)=O | – |
| inactive | N=C(N)NCCCC(NC(=O)[C@@H](Cc1ccccc1)NC(=O)[C@H](Cc1cnc[nH]1)NC(=O)CCc1cccc2c1OCO2)C(N)=O (single isomer, unassigned) | EC50 [2]: 7.28 µM; EC50 (Melanocortin receptor 4): 25.5 µM; EC50 (Melanocortin receptor 5): 23 µM |
| inactive | CC(=O)N/C(=C\c1ccccc1)C(=O)N[C@@H](Cc1cnc[nH]1)C(=O)N[C@H](Cc1ccccc1)C(=O)NC(CCCNC(=N)N)C(N)=O (single isomer, unassigned) | Activity [3]: inactive |
| inactive | COc1ccc(/C=C/C(=O)N[C@@H](Cc2cnc[nH]2)C(=O)N[C@H](Cc2ccccc2)C(=O)NC(CCCNC(=N)N)C(N)=O)cc1 (single isomer, unassigned) | – |
| inactive | COc1ccccc1/C=C/C(=O)N[C@@H](Cc1cnc[nH]1)C(=O)N[C@H](Cc1ccccc1)C(=O)NC(CCCNC(=N)N)C(N)=O (single isomer, unassigned) | – |
| inactive | N#C/C(=C\c1ccc(O)cc1)C(=O)N[C@@H](Cc1cnc[nH]1)C(=O)N[C@H](Cc1ccccc1)C(=O)NC(CCCNC(=N)N)C(N)=O (single isomer, unassigned) | – |
| inactive | N=C(N)NCCCC(NC(=O)[C@@H](Cc1ccccc1)NC(=O)[C@H](Cc1cnc[nH]1)NC(=O)/C(F)=C/c1ccccc1)C(N)=O (single isomer, unassigned) | – |
| inactive | N=C(N)NCCCC(NC(=O)[C@@H](Cc1ccccc1)NC(=O)[C@H](Cc1cnc[nH]1)NC(=O)/C=C/c1ccc([N+](=O)[O-])cc1)C(N)=O (single isomer, unassigned) | Activity [4]: inactive |
| inactive | N=C(N)NCCCC(NC(=O)[C@@H](Cc1ccccc1)NC(=O)[C@H](Cc1cnc[nH]1)NC(=O)/C=C/c1cccc(O)c1)C(N)=O (single isomer, unassigned) | – |
| inactive | N=C(N)NCCCC(NC(=O)[C@@H](Cc1ccccc1)NC(=O)[C@H](Cc1cnc[nH]1)NC(=O)/C=C/c1ccccc1)C(N)=O (single isomer, unassigned) | Selectivity Index (Mus musculus [5]): 44; Selectivity Index (Mus musculus [6]): 25 |
| inactive | N=C(N)NCCCC(NC(=O)[C@@H](Cc1ccccc1)NC(=O)[C@H](Cc1cnc[nH]1)NC(=O)CCC(=O)c1ccc(F)cc1)C(N)=O (single isomer, unassigned) | – |
| inactive | N=C(N)NCCCC(NC(=O)[C@@H](Cc1ccccc1)NC(=O)[C@H](Cc1cnc[nH]1)NC(=O)CCC(=O)c1ccccc1)C(N)=O (single isomer, unassigned) | – |
| – | N=C(N)NCCCC(NC(=O)[C@@H](Cc1ccccc1)NC(=O)[C@H](Cc1cnc[nH]1)NC(=O)CCCCc1ccc2c(c1)OCO2)C(N)=O (single isomer, unassigned) | Activity [4]: inactive; Activity [3]: inactive |
| inactive | N=C(N)NCCCC(NC(=O)[C@@H](Cc1ccccc1)NC(=O)[C@H](Cc1cnc[nH]1)NC(=O)CCc1c[nH]cn1)C(N)=O (single isomer, unassigned) | – |
| inactive | N=C(N)NCCCC(NC(=O)[C@@H](Cc1ccccc1)NC(=O)[C@H](Cc1cnc[nH]1)NC(=O)CCc1ccc(O)cc1)C(N)=O (single isomer, unassigned) | Activity [4]: inactive |
| inactive | N=C(N)NCCCC(NC(=O)[C@@H](Cc1ccccc1)NC(=O)[C@H](Cc1cnc[nH]1)NC(=O)CCc1cccc(O)c1)C(N)=O (single isomer, unassigned) | Activity [4]: inactive |
| inactive | N=C(N)NCCCC(NC(=O)[C@@H](Cc1ccccc1)NC(=O)[C@H](Cc1cnc[nH]1)NC(=O)CCc1cccnc1)C(N)=O (single isomer, unassigned) | Activity [4]: inactive |
| inactive | N=C(N)NCCCC(NC(=O)[C@@H](Cc1ccccc1)NC(=O)[C@H](Cc1cnc[nH]1)NC(=O)c1ccc2c(c1)OCO2)C(N)=O (single isomer, unassigned) | – |
| inactive | N=C(N)NCCCC(NC(=O)[C@@H](Cc1ccccc1)NC(=O)[C@H](Cc1cnc[nH]1)NC(=O)c1ccc2cc(O)ccc2c1)C(N)=O (single isomer, unassigned) | Activity [4]: inactive |
